The results in this text go back to patent EP0323865A1, “Novel immunosuppressant agent” (Merck & Co., Inc., priority 1988, dated 1989).

The test system of one data set is mouse T lymphocytes. Kind of data set: T-cell proliferation assay (ionomycin plus PMA induced T-cell stimulation, tritiated thymidine uptake). The class given is cell-based, C57Bl/6 mice. Conditions: result in words. On the procedure: The principle of this assay is to measure the proliferation of mouse T lymphocytes stimulated with the combination of ionomycin plus PMA. A positive sample in this assay will inhibit T-cell proliferation, as indicated by reduced tritiated thymidine uptake.
An equal volume of methanol was added to a 1 ml sample of each of the above broths producing a 1:2 whole broth equivalent (WBE). The samples were centrifuged at 3,000 rpm for 5 minutes and the resulting supernatants were used as starting materials for the T-cell proliferation assay. […]
Purified T lymphocytes were resuspended at 10⁶ cells/ml in complete culture medium composed of RPMI 1640 medium with 10% heat-inactivated fetal calf serum, […], 1 mM sodium pyruvate, 2 x 10⁻⁵ M 2-mercaptoethanol and 50 µg/ml gentamycin. […] The proliferation of T lymphocytes was assessed by measurement of tritiated thymidine incorporation. […] Radioactivity of filter discs corresponding to individual wells was measured by standard liquid scintillation counting methods (Betacounter). Mean counts per minute of replicate wells were calculated and the results expressed as percent inhibition of tritiated thymidine uptake (proliferation) as follows: [formula]

A short description of data set [1]: Physical characteristics: solubility. The class given is physicochemical. Conditions: methanol. From the text:
White amorphous powder • 2. […] Molecular weight determined by mass spectroscopy of 791.4784, consistent with an empirical formula of C₄₃H₆₉NO₁₂

For the compound `CC[C@@H]1/C=C(\C)C[C@H](C)C[C@H](OC)[C@H]2O[C@@](O)(C(=O)C(=O)N3CCCC[C@H]3C(=O)O[C@H](/C(C)=C/[C@@H]3CC[C@@H](O)[C@H](OC)C3)[C@H](C)[C@@H](O)CC1=O)[C@H](C)C[C@@H]2OC` [ascomycin, reference compound], the immunosuppressive activity entry in the data set on mouse T lymphocytes (for ascomycin no test is named) is “exhibits immunosuppressive activity”.
As to `CC[C@@H]1/C=C(\C)C[C@H](C)C[C@H](OC)[C@H]2O[C@@](O)(C(=O)C(=O)N3CCCC[C@H]3C(=O)O[C@H](/C(C)=C/[C@@H]3CC[C@@H](O)[C@H](OC)C3)[C@H](C)[C@@H](O)CC1=O)[C@H](C)C[C@@H]2OC` [immunomycin], the “inhibition of T-cell activation” value in the data set on mouse T lymphocytes is reported as “positive inhibition of T-cell activation”. Further, the Solubility entry in data set [1] was “Solubility in methanol”.
